Data reported in PubChem BioAssay AID1259407 (Chemical Carcinogenesis Research Information System (CCRIS), 2018).
Calls of active or inactive are those of the source. No rule for the calls is given here.

Tested on: CCRIS mutagenicity, Ames/micronucleus/aberration tests
Experiment: CCRIS mutagenicity studies
[1] = Test System: AMES SALMONELLA TYPHIMURIUM, Strain/Indicator: TA98, Metabolic Activation: NONE, Method: PREINCUBATION
[2] = Test System: AMES SALMONELLA TYPHIMURIUM, Strain/Indicator: TA100, Metabolic Activation: NONE, Method: PREINCUBATION
[3] = Test System: AMES SALMONELLA TYPHIMURIUM, Strain/Indicator: TA100, Metabolic Activation: RAT, LIVER, S-9, AROCLOR 1254, Method: STANDARD PLATE
[4] = Test System: AMES SALMONELLA TYPHIMURIUM, Strain/Indicator: TA98, Metabolic Activation: NONE, Method: STANDARD PLATE
[5] = Test System: AMES SALMONELLA TYPHIMURIUM, Strain/Indicator: TA98, Metabolic Activation: RAT, LIVER, S-9, AROCLOR 1254, Method: STANDARD PLATE
[6] = Test System: AMES SALMONELLA TYPHIMURIUM, Strain/Indicator: TA100, Metabolic Activation: NONE, Method: STANDARD PLATE

Structure (SMILES): CC(C)CO
- mutagenic call (Test System: AMES SALMONELLA TYPHIMURIUM, Strain/Indicator: TA97, Metabolic Activation: HAMSTER, LIVER, S-9, AROCLOR 1254 (10 OR 30%), Method: PREINCUBATION): inactive; negative
- mutagenic call (Test System: AMES SALMONELLA TYPHIMURIUM, Strain/Indicator: TA97, Metabolic Activation: NONE, Method: PREINCUBATION): inactive; negative
- mutagenic call (Test System: AMES SALMONELLA TYPHIMURIUM, Strain/Indicator: TA97, Metabolic Activation: RAT, LIVER, S-9, AROCLOR 1254 (10 OR 30%), Method: PREINCUBATION): inactive; negative
- mutagenic call (Test System: AMES SALMONELLA TYPHIMURIUM, Strain/Indicator: TA98, Metabolic Activation: HAMSTER, LIVER, S-9, AROCLOR 1254 (10 OR 30%), Method: PREINCUBATION): inactive; negative
- mutagenic call [1]: inactive; negative
- mutagenic call (Test System: AMES SALMONELLA TYPHIMURIUM, Strain/Indicator: TA98, Metabolic Activation: RAT, LIVER, S-9, AROCLOR 1254 (10 OR 30%), Method: PREINCUBATION): inactive; negative
- mutagenic call (Test System: AMES SALMONELLA TYPHIMURIUM, Strain/Indicator: TA98, Metabolic Activation: RAT, LIVER, S-9, KC 500, Method: PREINCUBATION): inactive; negative
- mutagenic call (Test System: AMES SALMONELLA TYPHIMURIUM, Strain/Indicator: TA100, Metabolic Activation: HAMSTER, LIVER, S-9, AROCLOR 1254 (10 OR 30%), Method: PREINCUBATION): inactive; negative
- mutagenic call [2]: inactive; negative
- mutagenic call (Test System: AMES SALMONELLA TYPHIMURIUM, Strain/Indicator: TA100, Metabolic Activation: RAT, LIVER, S-9, AROCLOR 1254 (10 OR 30%), Method: PREINCUBATION): inactive; negative
- mutagenic call (Test System: AMES SALMONELLA TYPHIMURIUM, Strain/Indicator: TA100, Metabolic Activation: RAT, LIVER, S-9, KC 500, Method: PREINCUBATION): inactive; negative
- mutagenic call (Test System: AMES SALMONELLA TYPHIMURIUM, Strain/Indicator: TA1535, Metabolic Activation: HAMSTER, LIVER, S-9, AROCLOR 1254 (10 OR 30%), Method: PREINCUBATION): inactive; negative
- mutagenic call (Test System: AMES SALMONELLA TYPHIMURIUM, Strain/Indicator: TA1535, Metabolic Activation: NONE, Method: PREINCUBATION): inactive; negative
- mutagenic call (Test System: AMES SALMONELLA TYPHIMURIUM, Strain/Indicator: TA1535, Metabolic Activation: RAT, LIVER, S-9, AROCLOR 1254 (10 OR 30%), Method: PREINCUBATION): inactive; negative
- mutagenic call (Test System: AMES SALMONELLA TYPHIMURIUM, Strain/Indicator: TA1535, Metabolic Activation: RAT, LIVER, S-9, KC 500, Method: PREINCUBATION): inactive; negative
- mutagenic call (Test System: AMES SALMONELLA TYPHIMURIUM, Strain/Indicator: TA1537, Metabolic Activation: HAMSTER, LIVER, S-9, AROCLOR 1254 (30%), Method: PREINCUBATION): inactive; negative
- mutagenic call (Test System: AMES SALMONELLA TYPHIMURIUM, Strain/Indicator: TA1537, Metabolic Activation: NONE, Method: PREINCUBATION): inactive; negative
- mutagenic call (Test System: AMES SALMONELLA TYPHIMURIUM, Strain/Indicator: TA1537, Metabolic Activation: RAT, LIVER, S-9, AROCLOR 1254 (30%), Method: PREINCUBATION): inactive; negative
- mutagenic call (Test System: AMES SALMONELLA TYPHIMURIUM, Strain/Indicator: TA1537, Metabolic Activation: RAT, LIVER, S-9, KC 500, Method: PREINCUBATION): inactive; negative
- mutagenic call (Test System: AMES SALMONELLA TYPHIMURIUM, Strain/Indicator: TA1538, Metabolic Activation: NONE, Method: PREINCUBATION): inactive; negative
- mutagenic call (Test System: AMES SALMONELLA TYPHIMURIUM, Strain/Indicator: TA1538, Metabolic Activation: RAT, LIVER, S-9, KC 500, Method: PREINCUBATION): inactive; negative
- mutagenic call (Test System: Ames Salmonella typhimurium, Strain/Indicator: TA98, Metabolic Activation: None, Method: Preincubation): inactive; negative
- mutagenic call (Test System: Ames Salmonella typhimurium, Strain/Indicator: TA98, Metabolic Activation: Rat, Liver, S-9, Phenobarbital and 5,6-benzoflavone, Method: Preincubation): inactive; negative
- mutagenic call (Test System: Ames Salmonella typhimurium, Strain/Indicator: TA100, Metabolic Activation: None, Method: Preincubation): inactive; negative
- mutagenic call (Test System: Ames Salmonella typhimurium, Strain/Indicator: TA100, Metabolic Activation: Rat, Liver, S-9, Phenobarbital and 5,6-benzoflavone, Method: Preincubation): inactive; negative
- mutagenic call (Test System: Ames Salmonella typhimurium, Strain/Indicator: TA1535, Metabolic Activation: None, Method: Preincubation): inactive; negative
- mutagenic call (Test System: Ames Salmonella typhimurium, Strain/Indicator: TA1535, Metabolic Activation: Rat, Liver, S-9, Phenobarbital and 5,6-benzoflavone, Method: Preincubation): inactive; negative
- mutagenic call (Test System: Ames Salmonella typhimurium, Strain/Indicator: TA1537, Metabolic Activation: None, Method: Preincubation): inactive; negative
- mutagenic call (Test System: Ames Salmonella typhimurium, Strain/Indicator: TA1537, Metabolic Activation: Rat, Liver, S-9, Phenobarbital and 5,6-benzoflavone, Method: Preincubation): inactive; negative
- mutagenic call (Test System: CHINESE HAMSTER V-79, Strain/Indicator: V-79 (HPRT)/6-THIOGUANINE, Metabolic Activation: NONE, Method: STANDARD PLATE): inactive; negative
- mutagenic call (Test System: CHINESE HAMSTER V-79, Strain/Indicator: V-79 (HPRT)/6-THIOGUANINE, Metabolic Activation: RAT LIVER S-9, Method: STANDARD PLATE): inactive; negative
- mutagenic call (Test System: E. COLI, Strain/Indicator: WP2 UVRA, Metabolic Activation: NONE, Method: PREINCUBATION): inactive; negative
- mutagenic call (Test System: E. COLI, Strain/Indicator: WP2 UVRA, Metabolic Activation: RAT, LIVER, S-9, KC 500, Method: PREINCUBATION): inactive; negative
- mutagenic call (Test System: E. coli, Strain/Indicator: WP2uvrA/pKM101, Metabolic Activation: None, Method: Preincubation): inactive; negative
- mutagenic call (Test System: E. coli, Strain/Indicator: WP2uvrA/pKM101, Metabolic Activation: Rat, Liver, S-9, Phenobarbital and 5,6-benzoflavone, Method: Preincubation): inactive; negative

Structure (SMILES): OC1C=Cc2c(ccc3ccccc23)C1O (stereo not drawn)
- mutagenic call [3]: active; positive

Structure (SMILES): CC(C)NCC(O)COc1cccc2c1C=CC2 (stereo not drawn)
- mutagenic call [4]: inactive; negative
- mutagenic call [5]: inactive; negative
- mutagenic call [6]: inactive; negative
- mutagenic call [3]: inactive; negative
- mutagenic call (Test System: AMES SALMONELLA TYPHIMURIUM, Strain/Indicator: TA102, Metabolic Activation: NONE, Method: STANDARD PLATE): inactive; negative
- mutagenic call (Test System: AMES SALMONELLA TYPHIMURIUM, Strain/Indicator: TA102, Metabolic Activation: RAT, LIVER, S-9, AROCLOR 1254, Method: STANDARD PLATE): inactive; negative

Structure (SMILES): Nc1cc(N)c(-c2ccccc2)c([N+](=O)[O-])c1
- mutagenic call [1]: active; positive
- mutagenic call (Test System: AMES SALMONELLA TYPHIMURIUM, Strain/Indicator: TA98, Metabolic Activation: RAT, LIVER, S-9, KANECHLOR 500, Method: PREINCUBATION): active; positive

Structure (SMILES): Cc1cccc2cc3ccccc3cc12
- mutagenic call [4]: inactive; negative
- mutagenic call [5]: inactive; negative
- mutagenic call [6]: inactive; negative
- mutagenic call [3]: inactive; negative

Structure (SMILES): CCCCN(C[C@@H](CO)OCc1ccccc1)N=O
- mutagenic call [2]: active; positive
- mutagenic call (Test System: AMES SALMONELLA TYPHIMURIUM, Strain/Indicator: TA100, Metabolic Activation: RAT, LIVER, S-9, PCB, Method: PREINCUBATION): active; positive

Structure (SMILES): c1ccc2cc3c(cc2c1)-c1cccc2cccc-3c12
- mutagenic call (Test System: AMES SALMONELLA TYPHIMURIUM, Strain/Indicator: TA98, Metabolic Activation: HAMSTER, LIVER, S-9, AROCLOR 1254 (30%), Method: PREINCUBATION): active; positive
- mutagenic call [1]: inactive; negative
- mutagenic call (Test System: AMES SALMONELLA TYPHIMURIUM, Strain/Indicator: TA98, Metabolic Activation: RAT, LIVER, S-9, AROCLOR 1254 (30%), Method: PREINCUBATION): active; positive
- mutagenic call (Test System: AMES SALMONELLA TYPHIMURIUM, Strain/Indicator: TA100, Metabolic Activation: HAMSTER, LIVER, S-9, AROCLOR 1254 (30%), Method: PREINCUBATION): active; positive
- mutagenic call [2]: inactive; negative
- mutagenic call (Test System: AMES SALMONELLA TYPHIMURIUM, Strain/Indicator: TA100, Metabolic Activation: RAT, LIVER, S-9, AROCLOR 1254): active; positive
- mutagenic call (Test System: AMES SALMONELLA TYPHIMURIUM, Strain/Indicator: TA100, Metabolic Activation: RAT, LIVER, S-9, AROCLOR 1254 (30%), Method: PREINCUBATION): active; positive
- mutagenic call [3]: active; positive
